Results: patent US11161842B2, “Bifunctional molecules for degradation of EGFR and methods of use” (Dana-Farber Cancer Institute, Inc., priority 2016, dated 2021)

Columns and labels:
[1] = biological target: T1, T790M/L858R transformed Ba/F3 cells (Homo sapiens, UniProt P00533, T790M/L858R, cells depend on it); assay: Ba/F3 cell proliferation (MTS) assay, T790M/L858R; format: cell-based, murine; conditions: for EC50: antiproliferative activity; for % control: compound at 1 μM, inhibition of growth as percent of control
T1 construct: The constructs were shuttled into the retroviral vector JP 1540 using the BD Creator™ System (BD Biosciences)
Source text: The EGFR mutant L858R, Del E746_A750, L858R/T790M, DelE746_A750/T790M, L858R/T790M/C797S and Del/T790M/C797S Ba/F3 cells have been previously described (Zhou, W., Ercan, D., Chen, L., Yun, C. H., Li, D., Capelletti, M., Cortot, A. B., Chirieac, L., Iacob, R. E., Padera, R., et al. “Novel mutant-selective EGFR kinase inhibitors against EGFR T790M,” Nature 462, (2009), 1070-1074). All cell lines were maintained in RPMI 1640 (Cellgro; Mediatech Inc., Herndon, Calif.) supplemented with 10% FBS 100 units/mL penicillin, 100 units/mL streptomycin, and 2 mM glutamine. L858R cells were maintained in ACL-4 media (Invitrogen, Carlsbad, Calif.) supplemented with 5% FBS, 100 units/mL penicillin, 100 units/mL streptomycin, and 2 mM glutamine. The EGFR I941R mutation was introduced via site directed mutagenesis using the Quick Change Site-Directed Mutagenesis kit (Stratagene; La Jolla, Calif.) according to the manufacturer's instructions. All constructs were confirmed by DNA sequencing. The constructs were shuttled into the retroviral vector JP 1540 using the BD Creator™ System (BD Biosciences). Ba/F3 cells were infected with retrovirus and according to standard protocols, as described previously (Zhou et al, Nature 2009). Stable clones were obtained by selection in puromycin (2 μg/ml).
Growth and inhibition of growth was assessed by MTS assay and was performed according to previously established methods (Zhou et al., Nature 2009). The MTS assay is a colorimetric method for determining the number of viable cells that is based on the bioreduction of MTS by cells to a formazan product that is soluble in cell culture medium and can be detected spectrophotometrically. Ba/F3 cells of different EGFR genotypes were exposed to treatment for 72 hours and the number of cells used per experiment determined empirically and has been previously established (Zhou et al., Nature 2009). All experimental points were set up in six wells and all experiments were repeated at least three times. […] The curves were fitted using a non-linear regression model with a sigmoidal dose response.
Compounds of Table 1 were tested at a concentration of 1 μM against T790M/L858R transformed Ba/F3 cells. The assay, as described in Example 42, measured inhibition of growth as a percent of the inhibitory activity of the control. In Table 1, A is 0<% control <25, B is 25<% control <50, C is 50<% control <75, and D is 75<% control.
Compounds of Table 2 were tested in a T790M/L858R transformed Ba/F3 cell line as described in Example 42 and the EC50 values were calculated. In Table 2, A is EC50<500 nM, B is 500 nM<EC50<1000 nM, C is 1000 nM<EC50<5000 nM, and D is 5000 nM<EC50.

[2] = biological target: T2, T790M/L858R/C797S transformed Ba/F3 cells (Homo sapiens, UniProt P00533, T790M/C797S/L858R, cells depend on it); assay: Ba/F3 cell proliferation (MTS) assay, T790M/L858R/C797S; format: cell-based, murine; conditions: antiproliferative activity
T2 construct: The constructs were shuttled into the retroviral vector JP 1540 using the BD Creator™ System (BD Biosciences)
T2 sequence (P00533 whole entry T790M/C797S/L858R): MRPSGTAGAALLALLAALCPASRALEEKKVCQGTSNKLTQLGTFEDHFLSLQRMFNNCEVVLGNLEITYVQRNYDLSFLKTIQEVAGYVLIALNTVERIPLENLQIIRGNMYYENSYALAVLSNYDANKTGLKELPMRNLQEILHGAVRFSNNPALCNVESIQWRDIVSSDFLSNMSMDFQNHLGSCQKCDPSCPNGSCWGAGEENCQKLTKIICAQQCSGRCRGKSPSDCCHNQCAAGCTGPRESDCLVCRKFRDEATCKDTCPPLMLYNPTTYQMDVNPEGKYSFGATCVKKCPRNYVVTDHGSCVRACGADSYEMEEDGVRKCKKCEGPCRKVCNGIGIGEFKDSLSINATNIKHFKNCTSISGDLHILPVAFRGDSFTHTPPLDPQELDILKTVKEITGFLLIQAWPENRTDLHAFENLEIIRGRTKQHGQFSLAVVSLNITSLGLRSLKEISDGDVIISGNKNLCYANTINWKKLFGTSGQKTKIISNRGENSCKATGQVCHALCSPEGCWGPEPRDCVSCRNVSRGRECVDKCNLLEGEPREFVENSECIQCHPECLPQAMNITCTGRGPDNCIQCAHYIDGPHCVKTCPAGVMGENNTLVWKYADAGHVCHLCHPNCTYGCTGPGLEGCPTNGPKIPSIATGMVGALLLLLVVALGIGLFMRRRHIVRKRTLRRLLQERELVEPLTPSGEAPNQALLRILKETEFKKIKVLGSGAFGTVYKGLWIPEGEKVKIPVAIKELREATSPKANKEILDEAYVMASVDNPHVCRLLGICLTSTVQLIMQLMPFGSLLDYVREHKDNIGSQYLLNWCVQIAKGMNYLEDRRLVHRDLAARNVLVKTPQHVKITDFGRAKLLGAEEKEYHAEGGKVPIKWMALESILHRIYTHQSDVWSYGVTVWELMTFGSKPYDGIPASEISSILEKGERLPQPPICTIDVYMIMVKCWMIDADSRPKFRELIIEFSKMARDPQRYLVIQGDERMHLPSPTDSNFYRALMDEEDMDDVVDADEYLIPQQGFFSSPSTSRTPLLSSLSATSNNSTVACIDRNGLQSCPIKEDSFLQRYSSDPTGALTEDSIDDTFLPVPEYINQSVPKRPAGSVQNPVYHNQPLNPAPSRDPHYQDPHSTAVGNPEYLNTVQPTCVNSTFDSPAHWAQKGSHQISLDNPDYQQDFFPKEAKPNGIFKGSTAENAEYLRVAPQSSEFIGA

T1 sequence (P00533 whole entry T790M/L858R): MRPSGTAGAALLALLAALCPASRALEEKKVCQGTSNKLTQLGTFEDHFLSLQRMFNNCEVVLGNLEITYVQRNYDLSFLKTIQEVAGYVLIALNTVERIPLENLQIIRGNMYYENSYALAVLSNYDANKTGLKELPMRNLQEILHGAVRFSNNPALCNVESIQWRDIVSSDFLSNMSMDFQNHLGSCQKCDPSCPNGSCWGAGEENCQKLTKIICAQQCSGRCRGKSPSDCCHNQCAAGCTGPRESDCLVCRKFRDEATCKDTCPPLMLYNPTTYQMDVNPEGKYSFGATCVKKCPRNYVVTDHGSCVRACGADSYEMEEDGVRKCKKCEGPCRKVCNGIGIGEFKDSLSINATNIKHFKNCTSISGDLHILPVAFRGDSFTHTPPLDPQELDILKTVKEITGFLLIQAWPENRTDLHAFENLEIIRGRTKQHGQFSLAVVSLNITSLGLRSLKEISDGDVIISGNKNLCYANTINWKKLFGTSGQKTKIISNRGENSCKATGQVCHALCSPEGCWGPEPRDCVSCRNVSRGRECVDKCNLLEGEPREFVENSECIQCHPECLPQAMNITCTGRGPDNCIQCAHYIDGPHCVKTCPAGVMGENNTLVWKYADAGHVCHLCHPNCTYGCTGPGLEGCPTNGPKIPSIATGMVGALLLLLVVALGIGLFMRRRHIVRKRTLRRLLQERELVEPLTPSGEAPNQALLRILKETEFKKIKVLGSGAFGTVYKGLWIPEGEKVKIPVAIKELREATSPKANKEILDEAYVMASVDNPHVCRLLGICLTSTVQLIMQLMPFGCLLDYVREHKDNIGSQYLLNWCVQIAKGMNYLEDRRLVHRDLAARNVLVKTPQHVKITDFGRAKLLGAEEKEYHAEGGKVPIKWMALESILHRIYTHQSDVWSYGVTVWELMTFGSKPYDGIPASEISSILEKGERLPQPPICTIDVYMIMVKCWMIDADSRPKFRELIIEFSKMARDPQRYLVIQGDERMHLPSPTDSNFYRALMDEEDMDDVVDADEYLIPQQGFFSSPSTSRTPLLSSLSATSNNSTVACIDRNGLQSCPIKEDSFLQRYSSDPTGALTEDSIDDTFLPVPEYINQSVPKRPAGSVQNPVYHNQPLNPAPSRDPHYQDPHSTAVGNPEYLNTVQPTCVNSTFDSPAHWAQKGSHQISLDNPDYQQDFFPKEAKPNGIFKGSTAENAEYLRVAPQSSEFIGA

Compound | EC50 [1] [nM] | % control [1] | EC50 [2] [nM]
O=C1CCC(N2C(=O)c3cccc(NCCOCCOCCOCCC(=O)N4CCN(c5ccc(-c6ccc7c(c6)C(=O)N(C(C(=O)Nc6nccs6)c6ccccc6)C7)cc5)CC4)c3C2=O)C(=O)N1 (centres unmarked) [Compound I-1, 2-(6-(4-(4-(3-(2-(2-(2-((2-(2,6-Dioxopiperidin-3-yl)-1,3-dioxoisoindolin-4-yl)amino)ethoxy)ethoxy)ethoxy)propanoyl)piperazin-1-yl)phenyl)-1-oxoisoindolin-2-yl)-2-phenyl-N-(thiazol-2-yl)acetamide] | < 500 | A (A is 0<% control <25) | 500 to 1000
O=C1CCC(N2C(=O)c3cccc(NCCOCCOCCC(=O)N4CCN(c5ccc(-c6ccc7c(c6)C(=O)N(C(C(=O)Nc6nccs6)c6ccccc6)C7)cc5)CC4)c3C2=O)C(=O)N1 (centres unmarked) [Compound I-7, 2-(6-(4-(4-(3-(2-(2-((2-(2,6-Dioxopiperidin-3-yl)-1,3-dioxoisoindolin-4-yl)amino)ethoxy)ethoxy)propanoyl)piperazin-1-yl)phenyl)-1-oxoisoindolin-2-yl)-2-phenyl-N-(thiazol-2-yl)acetamide] | – | B (B is 25<% control <50) | –
O=C1CCC(N2C(=O)c3cccc(NCCOCCC(=O)N4CCN(c5ccc(-c6ccc7c(c6)C(=O)N(C(C(=O)Nc6nccs6)c6ccccc6)C7)cc5)CC4)c3C2=O)C(=O)N1 (centres unmarked) [Compound I-8, 2-(6-(4-(4-(3-(2-((2-(2,6-Dioxopiperidin-3-yl)-1,3-dioxoisoindolin-4-yl)amino)ethoxy)propanoyl)piperazin-1-yl)phenyl)-1-oxoisoindolin-2-yl)-2-phenyl-N-(thiazol-2-yl)acetamide] | – | D (D is 75<% control) | –
O=C1CCC(N2C(=O)c3cccc(NCCOCCOCCOCCN4CCN(c5ccc(-c6ccc7c(c6)C(=O)N(C(C(=O)Nc6nccs6)c6cc(F)ccc6O)C7)cc5)CC4)c3C2=O)C(=O)N1 (centres unmarked) [Compound I-10, 2-(6-(4-(4-(2-(2-(2-(2-((2-(2,6-Dioxopiperidin-3-yl)-1,3-dioxoisoindolin-4-yl)amino)ethoxy)ethoxy)ethoxy)ethyl)piperazin-1-yl)phenyl)-1-oxoisoindolin-2-yl)-2-(5-fluoro-2-hydroxyphenyl)-N-(thiazol-2-yl)acetamide] | 1000 to 5000 | B (B is 25<% control <50) | > 5000
O=C1CCC(N2C(=O)c3cccc(NCCCCCCN4CCN(c5ccc(-c6ccc7c(c6)C(=O)N(C(C(=O)Nc6nccs6)c6cc(F)ccc6O)C7)cc5)CC4)c3C2=O)C(=O)N1 (centres unmarked) [Compound I-11, 2-(6-(4-(4-(6-((2-(2,6-Dioxopiperidin-3-yl)-1,3-dioxoisoindolin-4-yl)amino)hexyl)piperazin-1-yl)phenyl)-1-oxoisoindolin-2-yl)-2-(5-fluoro-2-hydroxyphenyl)-N-(thiazol-2-yl)acetamide] | 1000 to 5000 | B (B is 25<% control <50) | > 5000
O=C1CCC(N2C(=O)c3cccc(NCCCCCCCCN4CCN(c5ccc(-c6ccc7c(c6)C(=O)N(C(C(=O)Nc6nccs6)c6cc(F)ccc6O)C7)cc5)CC4)c3C2=O)C(=O)N1 (centres unmarked) [Compound I-12, 2-(6-(4-(4-(8-((2-(2,6-Dioxopiperidin-3-yl)-1,3-dioxoisoindolin-4-yl)amino)octyl)piperazin-1-yl)phenyl)-1-oxoisoindolin-2-yl)-2-(5-fluoro-2-hydroxyphenyl)-N-(thiazol-2-yl)acetamide] | 1000 to 5000 | B (B is 25<% control <50) | > 5000
O=C1CCC(N2C(=O)c3cccc(NCCCCCCN4CCN(c5ccc(-c6ccc7c(c6)C(=O)N(C(C(=O)Nc6nccs6)c6ccccc6)C7)cc5)CC4)c3C2=O)C(=O)N1 (centres unmarked) [Compound I-17, 2-(6-(4-(4-(6-((2-(2,6-Dioxopiperidin-3-yl)-1,3-dioxoisoindolin-4-yl)amino)hexyl)piperazin-1-yl)phenyl)-oxoisoindolin-2-yl)2-phenyl-N-(thiazol-2-yl)acetamide] | – | C (C is 50<% control <75) | –
O=C1CCC(N2C(=O)c3cccc(NCCCCCCCCN4CCN(c5ccc(-c6ccc7c(c6)C(=O)N(C(C(=O)Nc6nccs6)c6ccccc6)C7)cc5)CC4)c3C2=O)C(=O)N1 (centres unmarked) [Compound I-19, 2-(6-(4-(4-(8-((2-(2,6-Dioxopiperidin-3-yl)-1,3-dioxoisoindolin-4-yl)amino)octyl)piperazin-1-yl)phenyl)-1-oxoisoindolin-2-yl)-2-phenyl-N-(thiazol-2-yl)acetamide] | – | D (D is 75<% control) | –
O=C1CCC(N2C(=O)c3cccc(NCCOCCOCCN4CCN(c5ccc(-c6ccc7c(c6)C(=O)N(C(C(=O)Nc6nccs6)c6ccccc6)C7)cc5)CC4)c3C2=O)C(=O)N1 (centres unmarked) [Compound I-21, 2-(6-(4-(4-(2-(2-(2-((2-(2,6-Dioxopiperidin-3-yl)-1,3-dioxoisoindolin-4-yl)amino)ethoxy)ethoxy)ethyl)piperazin-1-yl)phenyl)-1-oxoisoindolin-2-yl)-2-phenyl-N-(thiazol-2-yl)acetamide] | – | C (C is 50<% control <75) | –
Cc1ncsc1-c1ccc(CNC(=O)[C@@H]2C[C@@H](O)CN2C(=O)[C@@H](NC(=O)CCOCCOCCOCCC(=O)N2CCN(c3ccc(-c4ccc5c(c4)C(=O)N(C(C(=O)Nc4nccs4)c4ccccc4)C5)cc3)CC2)C(C)(C)C)cc1 (stereo partly drawn) [Compound I-25, (2S,4R)-1-((2S)-2-(tert-Butyl)-4,16-dioxo-16-(4-(4-(3-oxo-2-(2-oxo-1-phenyl-2-(thiazol-2-ylamino)ethyl)isoindolin-5-yl)phenyl)piperazin-1-yl)-7,10,13-trioxa-3-azahexadecanoyl)-4-hydroxy-N-(4-(4-methylthiazol-5-yl)benzyl)pyrrolidine-2-carboxamide] | – | D (D is 75<% control) | –
Cc1ncsc1-c1ccc(CNC(=O)[C@@H]2C[C@@H](O)CN2C(=O)[C@@H](NC(=O)CCOCCOCCOCCC(=O)N2CCN(c3ccc(-c4ccc5c(c4)C(=O)N(C(C(=O)Nc4nccs4)c4cc(F)ccc4O)C5)cc3)CC2)C(C)(C)C)cc1 (stereo partly drawn) [Compound I-26, (2S,4R)-1-((2S)-2-(tert-Butyl)-16-(4-(4-(2-(1-(5-fluoro-2-hydroxyphenyl)-2-oxo-2-(thiazol-2-ylamino)ethyl)-3-oxoisoindolin-5-yl)phenyl)piperazin-1-yl)-4,16-dioxo-7,10,13-trioxa-3-azahexadecanoyl)-4-hydroxy-N-(4-(4-methylthiazol-5-yl)benzyl)pyrrolidine-2-carboxamide] | – | D (D is 75<% control) | –
CC1(N2C(=O)c3cccc(NCCOCCOCCOCCC(=O)N4CCN(c5ccc(-c6ccc7c(c6)C(=O)N(C(C(=O)Nc6nccs6)c6ccccc6)C7)cc5)CC4)c3C2=O)CCC(=O)NC1=O (centres unmarked) [Compound I-27, 2-(6-(4-(4-(3-(2-(2-(2-((2-(3-Methyl-2,6-dioxopiperidin-3-yl)-1,3-dioxoisoindolin-4-yl)amino)ethoxy)ethoxy)ethoxy)propanoyl)piperazin-1-yl)phenyl)-1-oxoisoindolin-2-yl)-2-phenyl-N-(thiazol-2-yl)acetamide] | – | D (D is 75<% control) | –
O=C1CCC(N2C(=O)c3cccc(N4CCN(c5ccc(-c6ccc7c(c6)C(=O)N(C(C(=O)Nc6nccs6)c6ccccc6)C7)cc5)CC4)c3C2=O)C(=O)N1 (centres unmarked) [Compound I-35] | – | D (D is 75<% control) | –
O=C(Nc1nccs1)C(c1ccccc1)N1Cc2ccc(-c3ccc(N4CCNCC4)cc3)cc2C1=O (centres unmarked) [TL Compd 1, 2-(1-oxo-6-(4-(piperazin-1-yl)phenyl)isoindolin-2-yl)-2-phenyl-N-(thiazol-2-yl)acetamide] | – | B (B is 25<% control <50) | –
O=C(Nc1nccs1)C(c1cc(F)ccc1O)N1Cc2ccc(-c3ccc(N4CCNCC4)cc3)cc2C1=O (centres unmarked) [TL Compd 2] | – | D (D is 75<% control) | –
